In US7713937B2, “Synthetic peptide amides and dimeric forms thereof” (Cara Therapeutics, Inc., priority 2006, dated 2010):
pEC50: −log10 of the molar value. Square brackets hold non-standard residues; d marks the D form. Side chains are listed from the residue outwards. Peptide text beside a SMILES is read from it. * marks the point of attachment. Piperidinyl(4-(1-Pro-OH)) = O=C(O)[C@@H]1CCCN1C1CCN(*)CC1; Piperidin1yl(4-NH2,4-COOH) = NC1(C(=O)O)CCN(*)CC1; Homopiperazine(4-amidino) = N=C(N)N1CCCN(*)CC1; d(hArg) = N=C(N)NCCCC[C@@H](N)C(=O)O; dAgb = N=C(N)NCC[C@@H](N)C(=O)O; Homopiperazinyl = C1CNCCN(*)C1; dAgp = N=C(N)NC[C@@H](N)C(=O)O; dNle = CCCC[C@@H](N)C(=O)O; dDab = NCC[C@@H](N)C(=O)O; Api = NC1(C(=O)O)CCNCC1

What was measured:
[1] = molecular target: T1, human kappa opioid receptor (hKOR) (Homo sapiens, UniProt P41145); assay: cell-based; conditions: for Emax: HEK293, read-out: hKOR Efficacy(%)
T1 construct: expressed in transfected cells; host or cells: HEK-293 cells, transient transfection with Fugene6
T1 sequence (P41145 whole entry): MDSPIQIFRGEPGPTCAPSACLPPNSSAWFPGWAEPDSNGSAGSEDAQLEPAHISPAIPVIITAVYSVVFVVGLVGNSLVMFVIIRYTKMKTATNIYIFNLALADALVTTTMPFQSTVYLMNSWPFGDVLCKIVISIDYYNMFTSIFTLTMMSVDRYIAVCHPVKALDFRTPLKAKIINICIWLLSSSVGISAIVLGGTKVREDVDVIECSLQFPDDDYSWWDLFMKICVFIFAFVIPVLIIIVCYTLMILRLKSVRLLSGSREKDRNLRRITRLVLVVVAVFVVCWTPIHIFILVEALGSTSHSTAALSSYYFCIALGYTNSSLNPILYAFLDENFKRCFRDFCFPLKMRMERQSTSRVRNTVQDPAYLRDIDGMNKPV

[2] = molecular target: T2, mouse kappa opioid receptor (mKOR) (Mus musculus, UniProt P33534); assay: cell-based; conditions: for Emax: read-out: mKOR Efficacy(%)
T2 construct: Stimulation of Endogenous Mouse Kappa-Opioid Receptor in R1.G1 Cells; host or cells: R1.G1 mouse thymoma cells
T2 sequence (P33534 whole entry): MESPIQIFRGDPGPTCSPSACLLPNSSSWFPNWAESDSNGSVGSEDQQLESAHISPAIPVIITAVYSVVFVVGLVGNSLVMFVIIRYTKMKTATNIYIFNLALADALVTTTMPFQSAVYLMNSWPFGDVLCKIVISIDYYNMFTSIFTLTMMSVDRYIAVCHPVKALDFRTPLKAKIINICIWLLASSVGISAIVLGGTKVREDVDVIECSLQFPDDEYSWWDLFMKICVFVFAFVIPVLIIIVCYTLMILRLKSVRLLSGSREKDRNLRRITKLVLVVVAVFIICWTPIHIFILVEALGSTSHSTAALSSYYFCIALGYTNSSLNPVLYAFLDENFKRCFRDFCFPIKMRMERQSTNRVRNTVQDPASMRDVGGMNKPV

CNCCCC[C@@H](NC(=O)[C@@H](CC(C)C)NC(=O)[C@@H](Cc1ccccc1)NC(=O)[C@H](N)Cc1ccccc1)C(=O)N1CCCN(C(=N)N)CC1 [Compound (1), D-Phe-D-Phe-D-Leu-(ε-Me)D-Lys-[4-amidinohomopiperazine amide]]
pEC50 [1]: 9.82 | Emax [1]: 97% | pEC50 [2]: 10.37 | Emax [2]: 103%

CNCCCC[C@@H](NC(=O)[C@@H](CC(C)C)NC(=O)[C@@H](Cc1ccccc1)NC(=O)[C@H](N)Cc1ccccc1)C(=O)N1CCC(N)(C(=O)O)CC1 [Compound (3), D-Phe-D-Phe-D-Leu-(ε-Me)D-Lys-[ω(4-aminopiperidine-4-carboxylic acid)]-OH]
pEC50 [1]: 9.80 | Emax [1]: 100% | pEC50 [2]: 10.28 | Emax [2]: 96%

CNCCCC[C@@H](NC(=O)[C@@H](CC(C)C)NC(=O)[C@@H](Cc1ccccc1)NC(=O)[C@H](N)Cc1ccccc1)C(=O)N1CCC(N2CCC[C@H]2C(=O)O)CC1 [Compound (6), D-Phe-D-Phe-D-Leu-(ε-Me)D-Lys-[N-(4-piperidinyl)-L-proline]-OH]
pEC50 [1]: 9.89 | Emax [1]: 100% | pEC50 [2]: 10.44 | Emax [2]: 94%

CC(C)C[C@@H](NC(=O)[C@@H](Cc1ccccc1)NC(=O)[C@H](N)Cc1ccccc1)C(=O)N[C@H](CCCNC(=N)N)C(=O)N1CCCNCC1 [Compound (7), D-Phe-D-Phe-D-Leu-D-Arg-[homopiperazine amide]] (H-[dF][dF][dL][dR]-Homopiperazinyl)
pEC50 [1]: 9.96 | Emax [1]: 100% | pEC50 [2]: 10.92 | Emax [2]: 98%

CC(C)C[C@@H](NC(=O)[C@@H](Cc1ccccc1)NC(=O)[C@H](N)Cc1ccccc1)C(=O)N[C@H](CCCCNC(=N)N)C(=O)N1CCC(N)(C(=O)O)CC1 [Compound (8), D-Phe-D-Phe-D-Leu-D-Har-[ω(4-aminopiperidine-4-carboxylic acid)]-OH] (H-[dF][dF][dL][d(hArg)]-{Piperidin1yl(4-NH2,4-COOH)})
pEC50 [1]: 9.92 | Emax [1]: 96% | pEC50 [2]: 10.37 | Emax [2]: 90%

CC(C)C[C@@H](NC(=O)[C@@H](Cc1ccccc1)NC(=O)[C@H](N)Cc1ccccc1)C(=O)N[C@H](CCCCNC(C)C)C(=O)N1CCC(N)(C(=O)O)CC1 [Compound (9), D-Phe-D-Phe-D-Leu-(ε-iPr)D-Lys-[ω(4-aminopiperidine-4-carboxylic acid)]-OH]
pEC50 [1]: 9.77 | Emax [1]: 90% | pEC50 [2]: 10.11 | Emax [2]: 96%

CC(C)C[C@@H](NC(=O)[C@@H](Cc1ccccc1)NC(=O)[C@H](N)Cc1ccccc1)C(=O)N[C@H](CNC(=N)N)C(=O)N1CCC(N)(C(=O)O)CC1 [Compound (10), D-Phe-D-Phe-D-Leu-(β-amidino)D-Dap-[ω(4-aminopiperidine-4-carboxylic acid)]-OH] (H-[dF][dF][dL][dAgp]-{Piperidin1yl(4-NH2,4-COOH)})
pEC50 [1]: 9.52 | Emax [1]: 86% | pEC50 [2]: 9.08 | Emax [2]: 90%

CC(C)C[C@@H](NC(=O)[C@@H](Cc1ccccc1)NC(=O)[C@H](N)Cc1ccccc1)C(=O)N[C@H](CCNC(=N)N)C(=O)N1CCC(N)(C(=O)O)CC1 [Compound (11), D-Phe-D-Phe-D-Leu-D-Nar-[ω(4-aminopiperidine-4-carboxylic acid)]-OH] (H-[dF][dF][dL][dAgb]-{Piperidin1yl(4-NH2,4-COOH)})
pEC50 [1]: 9.82 | Emax [1]: 82% | pEC50 [2]: 10.28 | Emax [2]: 92%

CC(C)C[C@@H](NC(=O)[C@@H](Cc1ccccc1)NC(=O)[C@H](N)Cc1ccccc1)C(=O)N[C@H](CCN)C(=O)N1CCC(N2CCC[C@H]2C(=O)O)CC1 [Compound (12), D-Phe-D-Phe-D-Leu-D-Dbu-[N-(4-piperidinyl)-L-proline]-OH] (H-[dF][dF][dL][dDab]-{Piperidinyl(4-(1-Pro-OH))})
pEC50 [1]: 9.77 | pEC50 [2]: 10.26 | Emax [2]: 89%

CC(C)C[C@@H](NC(=O)[C@@H](Cc1ccccc1)NC(=O)[C@H](N)Cc1ccccc1)C(=O)N[C@H](CCNC(=N)N)C(=O)N1CCC(N2CCC[C@H]2C(=O)O)CC1 [Compound (13), D-Phe-D-Phe-D-Leu-D-Nar-[N-(4-piperidinyl)-L-proline]-OH] (H-[dF][dF][dL][dAgb]-{Piperidinyl(4-(1-Pro-OH))})
pEC50 [1]: 9.89 | Emax [1]: 90% | pEC50 [2]: 10.49 | Emax [2]: 88%

CC(C)C[C@@H](NC(=O)[C@@H](Cc1ccccc1)NC(=O)[C@H](N)Cc1ccccc1)C(=O)N[C@H](CNC(=N)N)C(=O)N1CCC(N2CCC[C@H]2C(=O)O)CC1 [Compound (14), D-Phe-D-Phe-D-Leu-D-Dap(amidino)-[N-(4-piperidinyl)-L-proline]-OH] (H-[dF][dF][dL][dAgp]-{Piperidinyl(4-(1-Pro-OH))})
pEC50 [1]: 9.68 | Emax [1]: 81% | pEC50 [2]: 9.46 | Emax [2]: 86%

CC(C)C[C@@H](NC(=O)[C@@H](Cc1ccccc1)NC(=O)[C@H](N)Cc1ccccc1)C(=O)N[C@H](CCCCN)C(=O)N1CCCN(C(=N)N)CC1 [Compound (15), D-Phe-D-Phe-D-Leu-D-Lys-[4-amidinohomopiperazine amide]]
pEC50 [1]: 9.96 | Emax [1]: 92% | pEC50 [2]: 10.55 | Emax [2]: 92%

CC(C)C[C@@H](NC(=O)[C@@H](Cc1ccccc1)NC(=O)[C@H](N)Cc1ccccc1)C(=O)N[C@H](CCCCNC(=N)N)C(=O)N1CCCN(C(=N)N)CC1 [Compound (16), D-Phe-D-Phe-D-Leu-D-Har-[4-amidinohomopiperazine amide]] (H-[dF][dF][dL][d(hArg)]-{Homopiperazine(4-amidino)})
pEC50 [1]: 9.96 | Emax [1]: 96% | pEC50 [2]: 10.68 | Emax [2]: 105%

CC(C)C[C@@H](NC(=O)[C@@H](Cc1ccccc1)NC(=O)[C@H](N)Cc1ccccc1)C(=O)N[C@H](CCCCNC(C)C)C(=O)N1CCCN(C(=N)N)CC1 [Compound (17), D-Phe-D-Phe-D-Leu-(ε-iPr)D-Lys-[4-Amidinohomopiperazine amide]]
pEC50 [1]: 10.00 | Emax [1]: 102% | pEC50 [2]: 10.41 | Emax [2]: 103%

CC(C)C[C@@H](NC(=O)[C@@H](Cc1ccccc1)NC(=O)[C@H](N)Cc1ccccc1)C(=O)N[C@H](CNC(=N)N)C(=O)N1CCCN(C(=N)N)CC1 [Compound (18), D-Phe-D-Phe-D-Leu-(β-amidino)D-Dap-[4-amidinohomopiperazine amide]] (H-[dF][dF][dL][dAgp]-{Homopiperazine(4-amidino)})
pEC50 [1]: 8.94 | Emax [1]: 93% | pEC50 [2]: 8.99 | Emax [2]: 103%

CCCC[C@@H](NC(=O)[C@@H](Cc1ccccc1)NC(=O)[C@H](N)Cc1ccccc1)C(=O)N[C@H](CNC(=N)N)C(=O)N1CCCN(C(=N)N)CC1 [Compound (19), D-Phe-D-Phe-D-Nle-(β-amidino)D-Dap-[4-amidinohomopiperazine amide]] (H-[dF][dF][dNle][dAgp]-{Homopiperazine(4-amidino)})
pEC50 [2]: 8.67 | Emax [2]: 99%

CCCC[C@@H](NC(=O)[C@@H](Cc1ccccc1)NC(=O)[C@H](N)Cc1ccccc1)C(=O)N[C@H](CCCNC(=N)N)C(=O)N1CCC[C@@H]1C(=O)O [Compound (40), D-Phe-D-Phe-D-Nle-D-Arg-D-Pro-OH] (H-[dF][dF][dNle][dR][dP]-OH)
pEC50 [2]: 8.04 | Emax [2]: 88%

CC(C)C[C@@H](NC(=O)[C@@H](Cc1ccccc1)NC(=O)[C@H](N)Cc1ccccc1)C(=O)N[C@H](CCCN)C(=O)N[C@H]1CN[C@H](C(=O)O)C1 [Compound (41), D-Phe-D-Phe-D-Leu-D-Orn-[(2S,4R)-4-amino-pyrrolidine-2-carboxylic acid]-OH]
pEC50 [2]: 7.30 | Emax [2]: 87%

CC(C)C[C@@H](NC(=O)[C@@H](Cc1ccccc1)NC(=O)[C@H](N)Cc1ccccc1)C(=O)N[C@H](CCCN)C(=O)N[C@@H]1CN[C@H](C(=O)O)C1 [Compound (42), D-Phe-D-Phe-D-Leu-D-Orn-[(2S,45)-4-amino-pyrrolidine-2-carboxylic acid]-OH]
pEC50 [2]: 8.52 | Emax [2]: 96%

CC(C)C[C@@H](NC(=O)[C@@H](Cc1ccccc1)NC(=O)[C@H](N)Cc1ccccc1)C(=O)N[C@H](CCCN)C(=O)NC1CCN(CC(N)=O)CC1 [Compound (51), D-Phe-D-Phe-D-Leu-D-Orn-[4-amino-1-carboxymethyl-piperidine]-NH2]
pEC50 [2]: 8.71 | Emax [2]: 93%

CC(C)C[C@@H](NC(=O)[C@@H](Cc1ccccc1)NC(=O)[C@H](N)Cc1ccccc1)C(=O)N[C@H](CCCN)C(=O)NCCCC[C@@H](NC(=O)[C@H](N)CCCN)C(=O)O [Compound (82)]
pEC50 [2]: 9.92

CC(C)C[C@@H](N)C(=O)N[C@H](CCCN)C(=O)N[C@H](CCCCNC(=O)[C@@H](CCCN)NC(=O)[C@@H](CC(C)C)NC(=O)[C@@H](Cc1ccccc1)NC(=O)[C@H](N)Cc1ccccc1)C(=O)O [Compound (83)]
pEC50 [2]: 10.30 | Emax [2]: 91%

CC(C)C[C@@H](NC(=O)[C@H](N)Cc1ccccc1)C(=O)N[C@H](CCCN)C(=O)N[C@H](CCCCNC(=O)[C@@H](CCCN)NC(=O)[C@@H](CC(C)C)NC(=O)[C@@H](Cc1ccccc1)NC(=O)[C@H](N)Cc1ccccc1)C(=O)O [Compound (84)]
pEC50 [2]: 9.47 | Emax [2]: 85%

CC(C)C[C@@H](NC(=O)[C@@H](Cc1ccccc1)NC(=O)[C@H](N)Cc1ccccc1)C(=O)N[C@H](CCCNC(C)C)C(=O)NC1(C(=O)O)CCN(C(=O)[C@@H](CCCNC(C)C)NC(=O)[C@@H](CC(C)C)NC(=O)[C@@H](Cc2ccccc2)NC(=O)[C@H](N)Cc2ccccc2)CC1 [Compound (86), 1N,4N-bis-[D-Phe-D-Phe-D-Leu-(iPr)D-Orn]-4-amino-4-carboxylic-piperidine]
pEC50 [2]: 7.25 | Emax [2]: 77%

CC(C)C[C@@H](NC(=O)[C@@H](Cc1ccccc1)NC(=O)[C@H](N)Cc1ccccc1)C(=O)N[C@H](CCNC(=N)N)C(=O)NC1(C(=O)O)CCN(C(=O)[C@@H](CCNC(=N)N)NC(=O)[C@@H](CC(C)C)NC(=O)[C@@H](Cc2ccccc2)NC(=O)[C@H](N)Cc2ccccc2)CC1 [Compound (88), 1N,4N-bis-(D-Phe-D-Phe-D-Leu-D-Nar)-4-amino-4-carboxylic piperidine] (H-[dF][dF][dL][dAgb][Api]([dAgb-dL-dF-dF])-OH)
pEC50 [2]: 7.86 | Emax [2]: 76%
